{
  "source": "patent US20100104546A1",
  "about": "“MODULATORS OF ANTIGEN-DEPENDENT T CELL PROLIFERATION” (CHILDREN, YOUTH AND WOMEN'S HEALTH SERVICE, priority 2007, published 2010)",
  "tested_on": "circulating cytokine levels",
  "assay": "Circulating cytokine levels in SRBC-sensitized mice after intravenous SRBC challenge",
  "assay_type": "in vivo",
  "details": "serum, 80 mg/kg IP, 6 h after IV SRBC",
  "experimental": "Mice were injected subcutaneously with SRBC. After 5 days β-oxa-21:3n-3 (80 mg/kg) or vehicle (whole mouse serum) were injected intraperitoneally. 2 hours later SRBC were injected intravenously. The blood was collected from orbital plexus at 6 hours post intravenous SRBC injection. Serum was separated and frozen immediately at −70° C. The levels of cytokine were measured using BD mouse CBA kits using a BD Array instrument (BD, La Jolla, Calif.).\nThe insights from these cytokine studies prompted us to investigate whether injected β-oxa-21:3n-3 could regulate cytokine levels in vivo. The β-oxa-21:3n-3- or vehicle-administered pre-immune animals were challenged intravenously with SRBC; after 6 h the serum prepared from the mouse blood and cytokine levels measured.",
  "data": [
    {"smiles": "CC/C=C\\C/C=C\\C/C=C\\CCCCCCCCOCC(=O)O", "note": "[β-oxa-21:3n-3]", "values": [
      {"measurement": "IFNγ conc", "value": "229 ± 40", "unit": "pg/mL"},
      {"measurement": "IL-2 conc", "value": "73 ± 10", "unit": "pg/mL"},
      {"measurement": "IL-4 conc", "value": "3.5 ± 2", "unit": "pg/mL"},
      {"measurement": "IL-5 conc", "value": "120 ± 21", "unit": "pg/mL"},
      {"measurement": "IL-6 conc", "value": "35 ± 8", "unit": "pg/mL"},
      {"measurement": "IL-10 conc", "value": "9 ± 5", "unit": "pg/mL"},
      {"measurement": "IL-12 conc", "value": "320 ± 145", "unit": "pg/mL"},
      {"measurement": "IL-13 conc", "value": "0 ± 0", "unit": "pg/mL"},
      {"measurement": "KC conc", "value": "61 ± 21", "unit": "pg/mL"},
      {"measurement": "MCP-1 conc", "value": "2039 ± 457", "unit": "pg/mL"},
      {"measurement": "TNFα conc", "value": "15 ± 3", "unit": "pg/mL"}
    ]}
  ]
}
